From publication PMC5653977 (EMBO Molecular Medicine, 2017) come the findings set out here.

Counter-ions that a name gives are not always drawn.

This assay relates to NRG1-ERBB4 signaling. The assay is described as follows: Nrg1-ERBB4-PIK3R1 split TEV co-culture compound screen of the NIH Clinical Collection. In kind it is cell-based, human.
[1] abbreviates: compounds at 10 μM, 24 h, PC12 split TEV assay cells co-cultured with Nrg1-expressing PC12 cells, analysed with cellHTS2.
Where [2] appears, read: compound screen of the NIH Clinical Collection, sheet raw data NCC-003, compounds ranked by Z-score.
The mark [3] stands for this setting: NIH Clinical Collection NCC-003 raw data, compounds ranked by Z-score, 'flagged' given instead of a Z-score.

In turn, `CCOC(=O)CCC(=O)O[C@H]1[C@H](O[C@@H]2[C@@H](C)[C@H](O[C@H]3C[C@@](C)(OC)[C@@H](O)[C@H](C)O3)[C@@H](C)C(=O)O[C@H](CC)[C@@](C)(O)[C@H](O)[C@@H](C)C(=O)[C@H](C)C[C@@]2(C)O)O[C@H](C)C[C@@H]1N(C)C` [Eryped, reference compound] returned a Z-SCORE under setting [1] of -0.38. Consider `COC(=O)Nc1nc2ccc(C(=O)c3ccccc3)cc2[nH]1` [Mebendazole, reference compound], for which, under setting [1], the Z-SCORE is -4.63. `CN(CCOc1ccc(CC2SC(=O)NC2=O)cc1)c1ccccn1.Cl` (stereo not shown) [ROSIGLITAZONE HCl] gave a Z-SCORE under setting [2] of 0.11. For `C[C@]12CC[C@H](O)CC1=CC[C@@H]1[C@@H]2CC[C@]2(C)C(=O)CC[C@@H]12` [DEHYDROEPIANDROSTERONE], under setting [2], the Z-SCORE stood at 0.4. For the compound `CCCc1nc2c(C)cc(-c3nc4ccccc4n3C)cc2n1Cc1ccc(-c2ccccc2C(=O)O)cc1`, the Z-SCORE under setting [2] is 0.38. On the same count and under the same terms, under `O=C([O-])Cc1ccccc1Nc1c(Cl)cccc1Cl.[Na+]` stands 0.02. For `C[C@H]1C[C@@H]2[C@H]([C@@H](O)C[C@@]3(C)[C@H]2CC[C@]3(O)C(=O)CO)[C@@]2(C)C=CC(=O)C=C12` [METHYLPREDNISOLONE, reference compound], under setting [1], the Z-SCORE came out at 0.65. Under setting [1], `c1ccc(CC2=NCCN2)cc1` [Priscoline, reference compound] returned a Z-SCORE of 1.86. Consider `OC(Cn1cncn1)(Cn1cncn1)c1ccc(F)cc1F` [Fluconazole, reference compound], for which the Z-SCORE under setting [1] was 0.28. Turning to `CC/C(=C(\c1ccccc1)c1ccc(OCCN(C)C)cc1)c1ccccc1` [Tamoxifen, reference compound], the Z-SCORE under setting [1] stood at 1.48. Under setting [1], `O=C(O)COCCN1CCN(C(c2ccccc2)c2ccc(Cl)cc2)CC1` (stereo not shown) [Cetirizine, reference compound] displayed a Z-SCORE of 0.89. `CNC1CC(c2ccc(Cl)c(Cl)c2)c2ccccc21` (stereo not shown) [Indatraline]: the Z-SCORE under setting [2] is 0.28. On the same count and under the same terms, under `CN(C)CC[C@@H](c1ccc(Cl)cc1)c1ccccn1` [DEXCHLORPHENIRAMINE MALEATE] stands -0.67; under `OC[C@H]1O[C@@H](n2cnc3c(N[C@H]4CCC[C@@H]4O)ncnc32)[C@H](O)[C@@H]1O`, -0.71.

`CN(C)CCOc1ccc(/C(=C(/CCCl)c2ccccc2)c2ccccc2)cc1` [TOREMIFENE CITRATE]: under setting [3], the Z-SCORE result is “flagged”. Under setting [1], `CC1(C)O[C@@H]2C[C@H]3[C@@H]4C[C@H](F)C5=CC(=O)C=C[C@]5(C)[C@@]4(F)[C@@H](O)C[C@]3(C)[C@]2(C(=O)CO)O1` [FLUOCINOLONE ACETONIDE, reference compound] came in with a Z-SCORE of -0.16. As for `O=c1ncc(F)c[nH]1` [5-fluoro-2-pyrimidone], under setting [2], the Z-SCORE is listed as -0.03.

Consider `COc1ccc(-c2oc3c(CC=C(C)C)c(O[C@@H]4O[C@H](CO)[C@@H](O)[C@H](O)[C@H]4O)cc(O)c3c(=O)c2O[C@@H]2O[C@@H](C)[C@H](O)[C@@H](O)[C@H]2O)cc1` [ICARIIN], for which the Z-SCORE under setting [2] was -0.37. Same read-out and setting: under `COc1ccc(C(CN(C)C)C2(O)CCCCC2)cc1` (stereo not shown) [VENLAFAXINE HCl] stands 0.54; under `COc1ccc(C2CNC(=O)C2)cc1OC1CCCC1` (stereo not shown) [ROLIPRAM], 1.06. As to `COCCCC/C(=N\OCCN)c1ccc(C(F)(F)F)cc1` [Fluvoxamine], under setting [2], the Z-SCORE was -0.2.

Compound `O=C1NC(=O)C(c2ccccc2)(c2ccccc2)N1` [Dilantin, reference compound] displayed a Z-SCORE under setting [1] of 0.95. `O=C(CCCN1CCC(O)(c2ccc(Cl)cc2)CC1)c1ccc(F)cc1` [Haloperidol] showed a Z-SCORE under setting [2] of -0.98. On to `[H]/N=C(/NCCCCC)N/N=C/c1c[nH]c2ccc(OC)cc12` [TEGASEROD MALEATE], for which the Z-SCORE entry under setting [3] is given as “flagged”.

`CC(=O)OCC(=O)[C@@]1(O)CC[C@H]2[C@@H]3C[C@H](C)C4=CC(=O)C=C[C@]4(C)[C@H]3[C@@H](O)C[C@@]21C` [DEPO-MEDROL, reference compound] gave a Z-SCORE under setting [1] of 0.97.

For the compound `CCc1oc2ccccc2c1C(=O)c1cc(Br)c(O)c(Br)c1`, the Z-SCORE under setting [2] is listed as 0.47.

Under setting [2], `CN(C/C=C/C#CC(C)(C)C)Cc1cccc2ccccc12` [TERBINAFINE HCl] yielded a Z-SCORE of -0.44. On to `Cc1[nH]c(=O)c(C#N)cc1-c1ccncc1` [MILRINONE], for which, under setting [2], the Z-SCORE was -0.04. In turn, `Nc1nc(F)nc2c1ncn2[C@@H]1O[C@H](CO)[C@@H](O)[C@@H]1O` [FLUDARABINE, reference compound] had a Z-SCORE under setting [1] of 0.7. For `COc1cccc2c1C(=O)c1c(O)c3c(c(O)c1C2=O)C[C@@](O)(C(=O)CO)C[C@@H]3O[C@H]1C[C@H](N)[C@@H](O)[C@H](C)O1` [EPIRUBICIN HYDROCHLORIDE], under setting [3], the Z-SCORE entry is recorded as “flagged”. Consider `Nc1ccc(O)c(C(=O)O)c1` [5-Amino-2-hydroxy-benzoic acid], for which the Z-SCORE under setting [2] came to 1.62. `CC(O)(CS(=O)(=O)c1ccc(F)cc1)C(=O)Nc1ccc(C#N)c(C(F)(F)F)c1` (stereo not shown) [BICALUTAMIDE] returned a Z-SCORE under setting [2] of 0.

In the case of `CCN1CCN(c2cc3c(cc2F)c(=O)c(C(=O)O)cn3C2CC2)CC1` [ENROFLOXACIN], under setting [2], the Z-SCORE worked out at 0.83. Under setting [2], `O=C(O)CCc1nc(-c2ccccc2)c(-c2ccccc2)o1` [OXAPROZIN] yielded a Z-SCORE of 0.6. Under setting [2], `Cc1cccc(C)c1NC(=O)C1CCCCN1C` (stereo not shown) [MEPIVACAINE HYDROCHLORIDE] displayed a Z-SCORE of -0.39. Regarding `CC[C@H]1OC(=O)[C@H](C)C(=O)[C@H](C)[C@@H](O[C@@H]2O[C@H](C)C[C@H](N(C)C)[C@H]2O)[C@](C)(OC)C[C@@H](C)C(=O)[C@H](C)[C@H]2N(CCCCn3cnc(-c4cccnc4)c3)C(=O)O[C@]12C` [Telithromycin, reference compound], the Z-SCORE was 3.13 under setting [2] and 3.13 under setting [1]. Compound `CCS(=O)(=O)CCn1c([N+](=O)[O-])cnc1C` [TINIDAZOLE] returned a Z-SCORE under setting [2] of -0.51. `C=C1/C(=C\C=C2/CCC[C@]3(C)[C@@H]([C@H](C)CCCC(C)(C)O)CC[C@@H]23)C[C@@H](O)C[C@@H]1O` [CALCITRIOL] had a Z-SCORE under setting [2] of -0.48. `CS(=O)(=O)OCCCCOS(C)(=O)=O` [Busulfan, reference compound] displayed a Z-SCORE under setting [1] of 0.13.

The compound `COc1cc(C(=O)NS(=O)(=O)c2ccccc2C)ccc1Cc1cn(C)c2ccc(NC(=O)OC3CCCC3)cc12` [ZAFIRLUKAST] registered a Z-SCORE under setting [2] of -0.67. In the case of `Cc1noc(NS(=O)(=O)c2ccc(N)cc2)c1C` [Sulfisoxazole, reference compound], the Z-SCORE under setting [1] is recorded as 1.21.

`C=CCc1ccc(O)c(-c2ccc(O)c(CC=C)c2)c1` [HONOKIOL]: the Z-SCORE result under setting [3] is “flagged”. Compound `CCCNC(=O)NS(=O)(=O)c1ccc(Cl)cc1` [Chlorpropamide, reference compound] registered a Z-SCORE under setting [1] of -0.07. Turning to `CN(C)CCOC(c1ccccc1)c1ccccc1` [DIPHENHYDRAMINE HYDROCHLORIDE], the Z-SCORE under setting [2] turned out to be 1.01. In the case of `CN(C)[C@@H]1C(O)=C(C(N)=O)C(=O)[C@@]2(O)C(O)=C3C(=O)c4c(O)cccc4[C@@](C)(O)[C@H]3[C@H](O)[C@@H]12` [Oxytetracycline hydrochloride, reference compound], under setting [1], the Z-SCORE was 0.67. Take `C[C@@H]1CN(CCCn2c3ccccc3c3ccccc32)C[C@H](C)N1` [Rimcazole]: under setting [2], the Z-SCORE turned out to be 0.6. Under setting [2], `CC1=NS(=O)(=O)c2cc(Cl)ccc2N1` [DIAZOXIDE] had a Z-SCORE of 2.34. In the case of `CCC(COC(=O)c1cc(OC)c(OC)c(OC)c1)(c1ccccc1)N(C)C.O=C(O)/C=C\C(=O)O` (stereo not shown) [TRIMEBUTINE MALEATE], the Z-SCORE under setting [3] is -1.14. Under setting [2], `CC(C)Oc1ccc2c(=O)c(-c3ccccc3)coc2c1` [IPRIFLAVONE] yielded a Z-SCORE of 1.41. The compound `C[C@]12CC[C@@H]3c4ccc(OS(=O)(=O)[O-])cc4CC[C@H]3[C@@H]1CCC2=O.[Na+]` displayed a Z-SCORE under setting [2] of 0.37. `O=C([O-])C[C@H](O)C[C@H](O)/C=C/c1c(C2CC2)nc2ccccc2c1-c1ccc(F)cc1.O=C([O-])C[C@H](O)C[C@H](O)/C=C/c1c(C2CC2)nc2ccccc2c1-c1ccc(F)cc1.[Ca+2]` [ITAVASTATIN Ca]: the Z-SCORE entry under setting [3] is reported as “flagged”. For the compound `CCCC(=O)Nc1ccc(OCC(O)CNC(C)C)c(C(C)=O)c1` (stereo not shown) [ACEBUTOLOL HYDROCHLORIDE, reference compound], the Z-SCORE under setting [1] came to 0.4. Under setting [1], `O=C1CC[C@@]2(O)[C@H]3Cc4ccc(O)c5c4[C@@]2(CCN3CC2CC2)[C@H]1O5` [NALTREXONE HYDROCHLORIDE, reference compound] showed a Z-SCORE of 0.59.

`O=C1CC2(CCCC2)CC(=O)N1CCCCN1CCN(c2ncccn2)CC1` [Buspar, reference compound] gave a Z-SCORE under setting [1] of -0.01. With `CCN1CC(CCN2CCOCC2)C(c2ccccc2)(c2ccccc2)C1=O.Cl` (stereo not shown) [DOXAPRAM HYDROCHLORIDE], the Z-SCORE under setting [2] is -0.46.

For the compound `NC(=O)N1c2ccccc2C=Cc2ccccc21` [Carbamazepine, reference compound], under setting [1], the Z-SCORE is reported as -0.83. On to `CO[C@@H]1[C@@H](O[C@@H]2O[C@H](C)[C@@H](O[C@H]3C[C@@](C)(O)[C@@H](OC(=O)CC(C)C)[C@H](C)O3)[C@H](N(C)C)[C@H]2O)[C@@H](CC=O)C[C@@H](C)[C@@H](O)/C=C/C=C/C[C@@H](C)OC(=O)C[C@H]1O` [KITASAMYCIN], for which the Z-SCORE under setting [2] came out at 1.6. The compound `CN1CCN(CCCN2c3ccccc3Sc3ccc(Cl)cc32)CC1` showed a Z-SCORE under setting [2] of -0.47. The compound `CCOC(=O)C1=C(C)NC(C)=C(C(=O)OC)C1c1cccc(Cl)c1Cl` (stereo not shown) [Felodipine, reference compound] came in with a Z-SCORE under setting [1] of -1.97. As for `C[C@H]1CCC[C@H](O)CCCCCc2cc(O)cc(O)c2C(=O)O1` [ZERANOL], the Z-SCORE under setting [2] is listed as -0.91. The compound `COc1ccc(OC)c(C(O)CNC(=O)CN)c1` (stereo not shown) [Pro-Amatine, reference compound] registered a Z-SCORE under setting [1] of 0.01. Turning to `O=C1CN=C(c2ccccc2)c2cc([N+](=O)[O-])ccc2N1` [Nitrazepam], the Z-SCORE under setting [2] is on record as -0.23. In turn, `CC(NC(C)(C)C)C(=O)c1cccc(Cl)c1.Cl` (stereo not shown) [AMFEBUTAMONE HCl] returned a Z-SCORE under setting [2] of 0.
